Measured values: ChEMBL document CHEMBL3301472, “MMV Malaria Box HIV and cytotoxicity screening”

What was measured:
[1] = MMV: MTT Cytotoxicity Assay Day 7 pi of Assay #6 (compound washed out Day 1 pi), U87-CD4-CCR5 cells, % cell death @ 5mM compound; type: toxicity, cell-based; settings: human, u87-cd4-ccr5, 5000 µM
[2] = MMV: MTT Cytotoxicity Assay Day 7 pi of Assay #11 (NO washout), U87-CD4-CXCR4 cells, % cell death @ 5mM compound; type: toxicity, cell-based; settings: human, u87-cd4-cxcr4, 5000 µM
[3] = MMV: MTT Cytotoxicity Assay Day 3 pi, U87-CD4-CCR5 cells, % cell death @ 5mM compound; type: toxicity, cell-based; settings: human, u87-cd4-ccr5, 5000 µM
[4] = MMV: MTT Cytotoxicity Assay Day 7 pi of Assay #7 (compound washed out Day 1 pi), U87-CD4-CXCR4 cells, % cell death @ 5mM compound; type: toxicity, cell-based; settings: human, u87-cd4-cxcr4, 5000 µM
[5] = MMV: MTT Cytotoxicity Assay Day 3 pi, U87-CD4-CXCR4 cells, % cell death @ 5mM compound; type: toxicity, cell-based; settings: human, u87-cd4-cxcr4, 5000 µM
[6] = MMV: MTT Cytotoxicity Assay Day 7 pi of Assay #10 (NO washout), U87-CD4-CCR5 cells, % cell death @ 5mM compound; type: toxicity, cell-based; settings: human, u87-cd4-ccr5, 5000 µM
[7] = test system: Human immunodeficiency virus 1; test: MMV: HIV NL4-3 CXCR4-tropic replication-competent virus, NO washout, P24 ELISA Day 7 pi, U87-CD4-CXCR4, % inhibition at 5 mM compound; type: functional; parameters: dose or concentration left out as unconfirmed; settings: Human immunodeficiency virus 1, NL4-3, U87.CD4.CXCR4, 168 h
[8] = test system: Human immunodeficiency virus 1; test: MMV: HIV CXCR4-tropic env HxB2 pseudovirus assay produces luciferase signal in lieu of replicating viral particles Day 3 pi, U87-CD4-CXCR4, % inhibition at 5 mM compound; type: functional; parameters: dose or concentration left out as unconfirmed; settings: Human immunodeficiency virus 1, HxB2, U87.CD4.CXCR4, 72 h
[9] = test system: Human immunodeficiency virus 1; test: MMV: HIV NL4-3 CXCR4-tropic replication-competent virus, virus & compound washed out Day 1 pi, P24 ELISA Day 7 pi, U87-CD4-CXCR4, % inhibition at 5 mM compound; type: functional; parameters: dose or concentration left out as unconfirmed; settings: Human immunodeficiency virus 1, NL4-3, U87.CD4.CXCR4
[10] = test system: Human immunodeficiency virus 1; test: MMV: HIV JRFL CCR5-tropic replication-competent virus, virus & compound washed out Day 1 pi, P24 ELISA Day 7 pi, U87-CD4-CCR5, % inhibition at 5 mM compound; type: functional; parameters: dose or concentration left out as unconfirmed; settings: Human immunodeficiency virus 1, JR-FL
[11] = test system: Human immunodeficiency virus 1; test: MMV: HIV CXCR4-tropic env NL4-3 pseudovirus assay produces luciferase signal in lieu of replicating viral particles Day 3 pi, U87-CD4-CXCR4, % inhibition at 5 mM compound; type: functional; parameters: dose or concentration left out as unconfirmed; settings: Human immunodeficiency virus 1, NL4-3, U87.CD4.CXCR4, 72 h

CSC1=NC(=Nc2c(C)cccc2C)C2(CCC(C(C)(C)C)CC2)N1c1ccc(Cl)cc1 (stereo unspecified)
% Cell Death [1]: 1 | % Cell Death [2]: 0 | % Cell Death [3]: 3 | % Cell Death [4]: -6 | % Cell Death [5]: 6 | % Cell Death [6]: 12 | inhibition [7]: 9%

COc1ccc(/C=C2/SC(=Nc3ccccc3)NC2=O)cc1
% Cell Death [1]: 93 | % Cell Death [2]: 66 | % Cell Death [3]: 54 | % Cell Death [4]: 77 | % Cell Death [5]: 28 | % Cell Death [6]: 115 | inhibition [8]: 3%

COc1cc(C(=O)Nc2nc3c(cc4c5c(cccc53)CC4)s2)cc(OC)c1OC
% Cell Death [1]: 42 | % Cell Death [2]: 110 | % Cell Death [3]: 105 | % Cell Death [4]: 68 | % Cell Death [5]: 56 | % Cell Death [6]: 136 | inhibition [8]: 0%

O=C(Nc1ccccc1O)c1ccc(Oc2cccc(C(=O)Nc3ccccc3O)c2)cc1
% Cell Death [1]: 17 | % Cell Death [2]: -20 | % Cell Death [3]: 43 | % Cell Death [4]: -12 | % Cell Death [5]: 4 | % Cell Death [6]: 28 | inhibition [9]: 0%

O=C(O)C1Cc2c([nH]c3ccccc23)C(c2ccc(Cl)cc2Cl)N1 (stereo unspecified)
% Cell Death [1]: 15 | % Cell Death [2]: -2 | % Cell Death [3]: 10 | % Cell Death [4]: -34 | % Cell Death [5]: 11 | % Cell Death [6]: 27 | inhibition [9]: 0%

COc1ccc(C(=O)Nc2ccc3nc(N4CCCCC4)cc(C)c3c2)cc1OC
% Cell Death [1]: 78 | % Cell Death [2]: 106 | % Cell Death [3]: 108 | % Cell Death [4]: 16 | % Cell Death [5]: 23 | % Cell Death [6]: 91 | inhibition [9]: 5%

c1ccc(-c2ccc(-c3nc4ccccc4[nH]3)cc2)cc1
% Cell Death [1]: 16 | % Cell Death [2]: 70 | % Cell Death [3]: 12 | % Cell Death [4]: -19 | % Cell Death [5]: 6 | % Cell Death [6]: 11 | inhibition [9]: -1%

COC(=O)c1ccc(C2C3=C(O)CC(c4ccc(F)cc4)CC3=Nc3ccccc3N2C(=O)c2ccccc2)cc1 (stereo unspecified)
% Cell Death [1]: 39 | % Cell Death [2]: -29 | % Cell Death [3]: -1 | % Cell Death [4]: 12 | % Cell Death [5]: 33 | % Cell Death [6]: 18 | inhibition [9]: -1%

O=[N+]([O-])c1ccc(C=NNc2nc3ccccc3[nH]2)cc1
% Cell Death [1]: 28 | % Cell Death [2]: 22 | % Cell Death [3]: 32 | % Cell Death [4]: -15 | % Cell Death [5]: 6 | % Cell Death [6]: 38 | inhibition [9]: 0%

O=C(O)C(=O)O.Oc1ccccc1CN1CCN(C(c2ccccc2)c2ccccc2)CC1
% Cell Death [1]: 2 | % Cell Death [2]: 56 | % Cell Death [3]: 4 | % Cell Death [4]: 28 | % Cell Death [5]: 12 | % Cell Death [6]: 22 | inhibition [7]: 0%

O=C(CCc1ccco1)NC1CCN(CC2(c3ccc(Cl)cc3)CCC2)CC1
% Cell Death [1]: 2 | % Cell Death [2]: 97 | % Cell Death [3]: 18 | % Cell Death [4]: 24 | % Cell Death [5]: 38 | % Cell Death [6]: 109 | inhibition [9]: 1%

CCN(CC)CCNc1ccnc2cc3ccccc3cc12.O=P(O)(O)O
% Cell Death [1]: -26 | % Cell Death [2]: -36 | % Cell Death [3]: 33 | % Cell Death [4]: -15 | % Cell Death [5]: 28 | % Cell Death [6]: 10 | inhibition [9]: -1% | inhibition [10]: 9%

COc1ccc(C=C2SC(Nc3ccc(F)cc3)=NC2=O)c(OC)c1
% Cell Death [1]: -49 | % Cell Death [2]: 65 | % Cell Death [3]: 25 | % Cell Death [4]: 0 | % Cell Death [5]: 28 | % Cell Death [6]: 96 | inhibition [8]: 4%

CCOc1cc(Cl)c(C(C)NC(=O)c2ccccc2)cc1OCC (stereo unspecified)
% Cell Death [1]: -4 | % Cell Death [2]: 90 | % Cell Death [3]: 28 | % Cell Death [4]: -6 | % Cell Death [5]: 34 | % Cell Death [6]: 15 | inhibition [9]: 1% | inhibition [10]: 0%

COCCn1c(C)nc2ccccc2c1=O
% Cell Death [1]: -8 | % Cell Death [2]: 32 | % Cell Death [3]: 23 | % Cell Death [4]: 11 | % Cell Death [5]: 19 | % Cell Death [6]: 14 | inhibition [9]: 2% | inhibition [10]: 3%

OC(Cn1nnc2ccccc21)Cn1c2ccc(Br)cc2c2cc(Br)ccc21 (stereo unspecified)
% Cell Death [1]: 2 | % Cell Death [2]: 18 | % Cell Death [3]: 15 | % Cell Death [4]: 8 | % Cell Death [5]: -29 | % Cell Death [6]: 27 | inhibition [9]: 1% | inhibition [10]: -2%

CCCC(c1nnnn1C1CCCCC1)N1CCN(C(=O)c2ccco2)CC1.Cl (stereo unspecified)
% Cell Death [1]: -14 | % Cell Death [2]: 34 | % Cell Death [3]: -3 | % Cell Death [4]: -21 | % Cell Death [5]: 12 | % Cell Death [6]: -2 | inhibition [7]: 7%

OC(CNC1CCCCC1)Cn1c2ccc(I)cc2c2cc(I)ccc21 (stereo unspecified)
% Cell Death [1]: 3 | % Cell Death [2]: 26 | % Cell Death [3]: 27 | % Cell Death [4]: -9 | % Cell Death [5]: 25 | % Cell Death [6]: -2 | inhibition [8]: 3% | inhibition [10]: 3%

CC(C)(C)c1ccc(C(=O)Nc2c3c(nn2-c2cccc(Cl)c2)CSC3)cc1
% Cell Death [1]: 2 | % Cell Death [2]: 1 | % Cell Death [3]: 7 | % Cell Death [4]: -2 | % Cell Death [5]: -37 | % Cell Death [6]: 7 | inhibition [9]: 7%

CCOc1cc2c(cc1OCC)C(c1cc(Cl)c(O)c(OCC)c1)NCC2 (stereo unspecified)
% Cell Death [1]: 8 | % Cell Death [2]: 38 | % Cell Death [3]: -45 | % Cell Death [4]: -20 | % Cell Death [5]: 15 | % Cell Death [6]: 21 | inhibition [9]: 3%

CC(C)(C)CC(C)(C)NCC(O)COc1ccc2c(c1)CCC2.Cl (stereo unspecified)
% Cell Death [1]: 2 | % Cell Death [2]: 7 | % Cell Death [3]: -4 | inhibition [11]: -1% | % Cell Death [4]: -11 | % Cell Death [5]: 10 | % Cell Death [6]: -10 | inhibition [8]: 4%

O=C(Nc1nc(-c2ccccn2)cs1)c1ccccc1Br
% Cell Death [1]: -13 | % Cell Death [2]: 85 | % Cell Death [3]: -1 | % Cell Death [4]: -6 | % Cell Death [5]: 28 | % Cell Death [6]: 118 | inhibition [9]: 4%

Cc1cccc(N2C(=O)C3C(C2=O)C2(c4ccccc4)C(=O)C3(c3ccccc3)C(c3ccc4c(c3)OCO4)=C2c2ccc3c(c2)OCO3)c1 (stereo unspecified)
% Cell Death [1]: 4 | % Cell Death [2]: -20 | % Cell Death [3]: 4 | % Cell Death [4]: -2 | % Cell Death [5]: 35 | % Cell Death [6]: 0 | inhibition [9]: 3%

CCCc1c(C)nc2ccc(Br)cc2c1O
% Cell Death [1]: -7 | % Cell Death [2]: 27 | % Cell Death [3]: 4 | % Cell Death [4]: 7 | % Cell Death [5]: 29 | % Cell Death [6]: 25 | inhibition [9]: 5%

CCOc1ccc(Nc2c3ccccc3nc3ccccc23)cc1.Cl
% Cell Death [1]: 34 | % Cell Death [2]: 95 | % Cell Death [3]: 47 | inhibition [11]: 2% | % Cell Death [4]: 42 | % Cell Death [5]: 1 | % Cell Death [6]: 43 | inhibition [8]: 5%

COc1ccc(C2Sc3ccccc3N=C3C2=C(O)c2ccccc23)cc1 (stereo unspecified)
% Cell Death [1]: 7 | % Cell Death [2]: 3 | % Cell Death [3]: 0 | % Cell Death [4]: -32 | % Cell Death [5]: 10 | % Cell Death [6]: 17 | inhibition [9]: 7% | inhibition [10]: 7%

CCCCCCC(O)(c1ccc(F)cc1)C(CN1CCOCC1)c1ccccc1.Cl (stereo unspecified)
% Cell Death [1]: 3 | % Cell Death [2]: -35 | % Cell Death [3]: 13 | % Cell Death [4]: -17 | % Cell Death [5]: 12 | % Cell Death [6]: -2 | inhibition [9]: 8%

COc1ccc(NC(=O)C2c3ccccc3C(=O)N(CC(C)C)C2c2cccs2)cc1 (stereo unspecified)
% Cell Death [1]: -1 | % Cell Death [2]: -27 | % Cell Death [3]: 16 | % Cell Death [4]: -38 | % Cell Death [5]: 13 | % Cell Death [6]: -9 | inhibition [9]: 6% | inhibition [10]: 3%

Cc1c(C)n(CC(O)CNC2CCCCC2C)c2ccccc12 (stereo unspecified)
% Cell Death [1]: -11 | % Cell Death [2]: -68 | % Cell Death [3]: -17 | % Cell Death [4]: -17 | % Cell Death [5]: 18 | % Cell Death [6]: -14 | inhibition [7]: 7%

C=CCc1c(C)nc2ccccc2c1O
% Cell Death [1]: -8 | % Cell Death [2]: 50 | % Cell Death [3]: 4 | % Cell Death [4]: 38 | % Cell Death [5]: 36 | % Cell Death [6]: 109 | inhibition [9]: 4%

CC(C)(C)c1ccc(C2CC3=Nc4ccccc4N(C(=O)c4ccccc4Cl)C(c4ccc(F)cc4)C3=C(O)C2)cc1 (stereo unspecified)
% Cell Death [1]: 8 | % Cell Death [2]: 5 | % Cell Death [3]: -12 | % Cell Death [4]: 17 | % Cell Death [5]: 31 | % Cell Death [6]: 28 | inhibition [8]: -1%
